Measured values reported in patent US10961286B2, “Nucleic acids, vectors, host cells, and methods for recombinantly producing water-soluble membrane proteins” (CORNELL UNIVERSITY, priority 2014, dated 2021).
Read-outs that look alike come from different tables or passages of the source.

Key:
[1] = molecular target: T1, EmrE (dimeric, detergent-free OspA-EmrE-ApoAI*) (UniProt P02647+P23895); assay: Ligand binding by tryptophan fluorescence quenching, in vivo solubilized EmrE; design: species or system E. coli; settings: for binding affinity of OspA-EmrE-ApoAI* compared to detergent-solubilized EmrE: 10 μM protein, EmrE comparator in DDM buffer
T1 construct: made in house; host or cells: E. coli BL21(DE3), pET28a
Method: Fluorescence spectra of protein samples were collected using a Fluorolog-Tau-3 time-resolved spectrofluorometer (Horiba). Protein concentration of OspA-EmrE-ApoAI* in SEC buffer and EmrE in DDM containing buffer (20 mM Tris-HCl, pH 7.5, 150 mM NaCl, and 0.08% w/v DDM) was 10 μM. Fluorescence spectra using a 295-nm excitation were collected after each volume of ligand. A small magnetic stir bar was added to the 1-cm path-length quartz cuvette containing either the sample or buffer. The stirring speed was set such that the surface was not noticeably disturbed. Approximately 1 min was allowed between the addition of ligand and the beginning of spectra collection. A total of 3 replicates were performed with the first sample preparation to control for experimental variability. After this, only one experimental replicate of the following second and third sample preparations were performed. Thus, each ligand-binding curve reflects the average of 3 replicates from 3 different protein preparations to control for biological and preparation variability. A 10-nm slit width was used for both excitation and emission. The interval was set at 2.0 nm and the integration time at 0.1 s. Only one scan of the emission between 300 and 400 nm was collected per titration. […] Quenching of fluorescence was recorded and plotted using GraphPad PRISM 6.
It was next determined whether EmrE that had been solubilized by fusion to ApoAI* was able to bind to known ligands. […] There are a total of 14 aromatic amino acids in EmrE (4 tryptophans, 5 tyrosines, and 5 phenylalanines), some of which participate in ligand binding and protein stability and permit determination of binding constants based on fluorescence quenching (Bay et al., “Spectroscopic Analysis of Small Multidrug Resistance Protein EmrE in the Presence of Various Quaternary Cation Compounds,” Biochim. Biophys. Acta 1818:1318-31 (2012), which is hereby incorporated by reference in its entirety). The ligand binding activity of dimeric, detergent-free OspA-EmrE-ApoAI* was measured and compared to detergent-solubilized EmrE. […]

[2] = molecular target: in vitro solubilized EmrE (Escherichia coli, UniProt P23895); settings: cited from earlier work
[3] = molecular target: T2, CYP17A1 (Homo sapiens, UniProt P05093); assay: Lyase assay: augmentation of CYP17A1 lyase activity by cyt b5 variants; type: biochemical
T2 construct: microsomes containing native CYP17A1 (5 pmol); made in house; host or cells: transformed yeast (microsomes)
T2 sequence (P05093 1-508): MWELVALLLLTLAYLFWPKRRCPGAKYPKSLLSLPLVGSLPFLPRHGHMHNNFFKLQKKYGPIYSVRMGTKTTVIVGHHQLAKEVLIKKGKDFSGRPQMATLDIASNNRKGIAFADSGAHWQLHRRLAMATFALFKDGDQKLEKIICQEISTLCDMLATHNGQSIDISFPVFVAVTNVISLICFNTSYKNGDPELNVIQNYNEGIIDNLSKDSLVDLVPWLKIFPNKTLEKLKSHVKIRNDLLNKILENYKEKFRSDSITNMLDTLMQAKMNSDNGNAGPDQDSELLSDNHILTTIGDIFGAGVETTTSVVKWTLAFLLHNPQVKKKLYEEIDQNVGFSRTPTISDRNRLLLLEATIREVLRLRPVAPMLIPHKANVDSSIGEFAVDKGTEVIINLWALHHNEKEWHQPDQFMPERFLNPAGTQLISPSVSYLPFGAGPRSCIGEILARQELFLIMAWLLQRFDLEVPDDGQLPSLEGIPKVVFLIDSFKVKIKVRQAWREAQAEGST
Method: In a 2-ml polypropylene tube, microsomes containing native CYP17A1 (5 pmol) and cytochrome P450 oxidoreductase ([…]), at room temperature for 5 min before adding substrate. The reaction mixture was then diluted to 0.2 ml with 50 mM potassium phosphate buffer (pH 7.4), and substrate 17-hydroxypregnelonone (17-P5; 5 μM with 80,000 CPM in methanol, 2% of incubation volume) was added. The resulting mixture was pre-incubated at 37° C. for 3 min before adding NADPH (1 mM) and incubating at 37° C. for another 20 min. The reaction mixture was extracted with 1 ml dichloromethane, and the organic phase was dried under nitrogen flow. Steroids were analyzed using an Agilent 1260 Infinity HPLC system with UV detector and β-RAM4 in-line scintillation counter (LabLogic, Brandon, Fla.). Extracted steroid products were dissolved in 20 μl of methanol, and 5 μl injections were resolved with a 50×2.1 mm, 2.6 μm, C8 Kinetex column (Phenomenex, Torrance, Calif.), equipped with a guard column at a flow rate of 0.4 mL min^−1. A methanol/water linear gradient was used: 27% methanol from 0 to 0.5 min, 39% to 16 min, 44% to 20 min, 60% to 22 min, 71% to 30 min, 75% to 30.5 min, 27% to 33 min. Products were identified by retention times of external standards chromatographed at the beginning and ends of the experiments. The flow rate of the scintillation cocktail (Bio-SafeII, Research Products International, Mount Prospect, Ill.) was 1.2 mL min^−1, and the data were processed with Laura4 software (LabLogic).

[4] = molecular target: T3, cytochrome P450c17 (17α-hydroxylase/17,20-lyase; CYP17A1) (Homo sapiens, UniProt P05093); settings: cited from earlier work
T3 sequence (P05093 1-508): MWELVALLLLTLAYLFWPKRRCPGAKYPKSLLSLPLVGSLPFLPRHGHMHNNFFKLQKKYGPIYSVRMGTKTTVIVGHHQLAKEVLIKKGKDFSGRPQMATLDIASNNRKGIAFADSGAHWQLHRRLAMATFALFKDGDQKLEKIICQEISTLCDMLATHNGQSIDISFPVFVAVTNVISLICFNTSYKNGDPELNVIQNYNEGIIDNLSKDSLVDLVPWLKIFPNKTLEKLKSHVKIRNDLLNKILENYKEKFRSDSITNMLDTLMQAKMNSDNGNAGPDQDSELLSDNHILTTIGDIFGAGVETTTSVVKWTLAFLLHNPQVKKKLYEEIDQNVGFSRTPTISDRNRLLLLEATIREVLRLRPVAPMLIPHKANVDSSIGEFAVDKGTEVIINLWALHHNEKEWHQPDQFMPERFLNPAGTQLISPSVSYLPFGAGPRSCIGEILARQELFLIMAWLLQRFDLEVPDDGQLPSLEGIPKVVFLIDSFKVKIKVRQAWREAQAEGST

C[n+]1ccc(-c2cc[n+](C)cc2)cc1 [MV, methyl viologen]
binding affinity of OspA-EmrE-ApoAI* compared to detergent-solubilized EmrE [1]: higher | Kd ([1]; in vivo solubilized EmrE, detergent-free): 48 µM | Kd ([2]; in vitro solubilized EmrE in dodecylmaltoside): 46.2 µM | Kd ([2]; in vitro solubilized EmrE in small unilamellar vesicles): 38.2 µM | Kd ([2]; in vitro solubilized EmrE in sodium dodecyl sulphate): 5.4 µM

c1ccc([P+](c2ccccc2)(c2ccccc2)c2ccccc2)cc1 [TPP+, tetraphenylphosphonium]
binding affinity of OspA-EmrE-ApoAI* compared to detergent-solubilized EmrE [1]: higher

B1: detergent-solubilized cyt b5: wild-type human cytochrome b5 that had been detergent solubilized (protein)
chain: MAEQSDEAVKYYTLEEIQKHNHSKSTWLILHHKVYDLTKFLEEHPGGEEVLREQAGGDATENFEDVGHSTDAREMSKTFIIGELHPDDRPKLNKPPETLITTIDSSSSWWTNWVIPAISAVAVALMYRLYMAED
stimulation of lyase activity compared to the in vivo solubilized version [3]: slightly better stimulator of lyase activity | stimulation of CYP17A1 lyase activity (DHEA formed from 17-P5) ([3]; 5-25 pmol cyt b5 variant): plateaued | stimulation of CYP17A1 lyase activity ([3]; at slightly lower concentrations): dose-dependent stimulation | stimulation of 17,20-lyase activity ([4]; recombinant cyt b5 from E. coli, literature): stimulated 17,20-lyase activity

B2: cyt b5: human cytochrome b5, 134-residue bitopic membrane protein (protein, UniProt P00167 1-134, looked up)
chain: MAEQSDEAVKYYTLEEIQKHNHSKSTWLILHHKVYDLTKFLEEHPGGEEVLREQAGGDATENFEDVGHSTDAREMSKTFIIGELHPDDRPKLNKPPETLITTIDSSSSWWTNWVIPAISAVAVALMYRLYMAED
modifications: full-length
notes: human cytochrome b5, 134-residue bitopic membrane protein
increase of the rate of the 17,20-lyase reaction ([4]; a molar equivalent of cyt b5): 10 fold
